Measured values taken from PubChem BioAssay (NCI).
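Exposure lasted 48 hours, with cells grown in 96-well plates and compounds tested at five concentrations. GI50 = concentration required for 50% inhibition of growth. TGI marks complete inhibition of growth.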

Tests used:
Assay in all cases: NCI-60 cell line screen, 48 h
COLO 205 colon = system: COLO 205 colon
DU-145 prostate = system: DU-145 prostate
EKVX NSCLC = system: EKVX NSCLC
MDA-MB-231 breast = system: MDA-MB-231 breast
SK-MEL-2 melanoma = system: SK-MEL-2 melanoma
SN12C renal = system: SN12C renal
SW-620 colon = system: SW-620 colon
U251 CNS = system: U251 CNS
UACC-257 melanoma = system: UACC-257 melanoma
UACC-62 melanoma = system: UACC-62 melanoma

Structure (SMILES) | GI50 (COLO 205 colon) [µM] | TGI (COLO 205 colon) [µM] | GI50 (DU-145 prostate) [µM] | TGI (DU-145 prostate) [µM] | GI50 (EKVX NSCLC) [µM] | TGI (EKVX NSCLC) [µM] | GI50 (MDA-MB-231 breast) [µM] | TGI (MDA-MB-231 breast) [µM] | GI50 (SK-MEL-2 melanoma) [µM] | TGI (SK-MEL-2 melanoma) [µM] | GI50 (SN12C renal) [µM] | TGI (SN12C renal) [µM] | GI50 (SW-620 colon) [µM] | TGI (SW-620 colon) [µM] | GI50 (U251 CNS) [µM] | TGI (U251 CNS) [µM] | GI50 (UACC-257 melanoma) [µM] | TGI (UACC-257 melanoma) [µM] | GI50 (UACC-62 melanoma) [µM] | TGI (UACC-62 melanoma) [µM]
CN(Cc1ccc(F)cc1)c1ccc(CO)c(Cl)c1 | 5.86 | 19.8 | 29.1 | > 100 | 26.9 | > 100 | 28.7 | > 100 | 8.32 | 33.8 | 23.2 | > 100 | 5.14 | > 100 | 4.63 | 68.5 | 0.439 | 1.66 | 0.323 | 3.32
C/C(=C(/c1ccccc1)c1ccc(OCC(O)CNCCN2CCOCC2)cc1)c1ccccc1 (stereo not given) | 1.95 | 4.17 | 4.37 | 15.7 | 7.15 | 20.6 | 1.78 | 3.83 | 2.5 | 6.24 | 5.08 | 18.5 | 1.77 | 3.36 | 2.03 | 4.52 | 2.02 | 4.07 | 1.93 | 3.82
c1ccc(-c2nc3n(c2-c2ccc4c(c2)OCO4)CCC3)nc1 | 9.15 | > 25 | 7.22 | > 25 | 5.2 | > 25 | 4.25 | > 25 | 11.7 | > 25 | 7.56 | > 25 | 8.47 | > 25 | 6.96 | > 25 | 7.45 | 21.9 | 5.31 | 16.2
